The subject of assay [1] is HepG2. As to the kind of experiment: Lipid-lowering effect in human HepG2 cells assessed as reduction in oleic acid-induced lipid accumulation at 1 uM after 6 hrs by oil-red O staining based spectrophotometry. Type of assay: functional, cell-based.
Assay [2] deals with T1, Peroxisome proliferator-activated receptor alpha (Homo sapiens) (UniProt Q07869).
T1 sequence (whole entry): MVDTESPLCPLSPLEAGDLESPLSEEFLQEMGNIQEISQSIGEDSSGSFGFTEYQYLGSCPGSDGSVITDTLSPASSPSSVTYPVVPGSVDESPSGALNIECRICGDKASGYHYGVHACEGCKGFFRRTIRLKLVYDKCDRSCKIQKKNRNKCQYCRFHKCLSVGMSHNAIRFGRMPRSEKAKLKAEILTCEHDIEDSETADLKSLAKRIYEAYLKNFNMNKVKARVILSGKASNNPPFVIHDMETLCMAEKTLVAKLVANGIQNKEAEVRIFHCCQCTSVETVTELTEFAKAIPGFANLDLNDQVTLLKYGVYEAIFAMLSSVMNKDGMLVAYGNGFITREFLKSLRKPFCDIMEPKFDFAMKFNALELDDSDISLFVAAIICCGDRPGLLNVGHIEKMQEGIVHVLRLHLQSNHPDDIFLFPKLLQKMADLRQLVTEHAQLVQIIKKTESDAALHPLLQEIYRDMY
As to the kind of experiment: Activation of PPARalpha transactivation in human HepG2 cells assessed as increase in transcriptional activity at 0.1 to 10 uM by luciferase reporter gene assay. The class given is cell-based. A general note: Reporter assays use an easily measured gene product as a stand-in for the process of interest.

Assay [3] relates to HepG2. As to the kind of experiment: Lipid-lowering effect in human HepG2 cells assessed as reduction in oleic acid-induced total cholesterol accumulation at 1 and 10 uM after 24 hrs by oil-red O staining based spectrophotometry. Type of assay: functional, cell-based.
Assay [4] relates to HepG2. As to the kind of experiment: Inhibition of HMGCR gene expression in human HepG2 cells at 1 uM by quantitative real time PCR method. The class given is functional, cell-based. Background: In qPCR the cycle at which signal appears reflects the starting amount.
Assay [5] has as its system HepG2. As to the kind of experiment: Increase in ACOX1 gene expression in human HepG2 cells at 1 uM by quantitative real time PCR method. Type of assay: functional, cell-based.
In assay [6] the test system is HepG2. As to the kind of experiment: Increase in CPT1 gene expression in human HepG2 cells at 1 uM by quantitative real time PCR method. Type of assay: functional, cell-based.
For assay [7], the system named is HepG2. As to the kind of experiment: Increase in PGC-1alpha protein expression in human HepG2 cells at 1 to 10 uM by Western blotting method. Type of assay: functional, cell-based. On the technique in general: A western blot detects proteins with antibodies after separation by electrophoresis.
Assay [8] deals with HepG2. As to the kind of experiment: Inhibition of FAS gene expression in human HepG2 cells at 1 uM by quantitative real time PCR method. The class given is functional, cell-based.
For assay [9], the system named is HepG2. As to the kind of experiment: Inhibition of ACC gene expression in human HepG2 cells at 1 uM by quantitative real time PCR method. Type of assay: functional, cell-based.
Assay [10] deals with HepG2. As to the kind of experiment: Lipid-lowering effect in human HepG2 cells assessed as reduction in oleic acid-induced triglyceride accumulation at 10 uM in presence of 10 uM PPARalpha antagonist MK886 by oil-red O staining based spectrophotometry. The class given is functional, cell-based.
The test system of assay [11] is HepG2. As to the kind of experiment: Increase in PPARalpha gene expression in human HepG2 cells at 1 uM by quantitative real time PCR method. The class given is functional, cell-based.
Assay [12] concerns HepG2. The assay is described as follows: Lipid-lowering effect in human HepG2 cells assessed as reduction in oleic acid-induced neutral lipid accumulation at 1 and 10 uM after 24 hrs by oil-red O staining based spectrophotometry. The class given is functional, cell-based.
Assay [13] has as its system HepG2. The assay is described as follows: Lipid-lowering effect in human HepG2 cells assessed as reduction in oleic acid-induced total cholesterol accumulation at 10 uM in presence of 10 uM PPARalpha antagonist MK886 by oil-red O staining based spectrophotometry. Type of assay: functional, cell-based.
Assay [14] has as its system HepG2. As to the kind of experiment: Increase in CPT1 protein expression in human HepG2 cells at 1 to 10 uM by Western blotting method. Type of assay: functional, cell-based.
Assay [15] concerns HepG2. As to the kind of experiment: Increase in MCD1 gene expression in human HepG2 cells at 1 uM by quantitative real time PCR method. The class given is functional, cell-based.
The test system of assay [16] is HepG2. As to the kind of experiment: Lipid-lowering effect in human HepG2 cells assessed as reduction in oleic acid-induced triglyceride accumulation at 1 and 10 uM after 24 hrs by oil-red O staining based spectrophotometry. The class given is functional, cell-based.
For assay [17], the system named is HepG2. The assay is described as follows: Increase in PPARalpha protein expression in human HepG2 cells at 1 to 10 uM by Western blotting method. Type of assay: functional, cell-based.
Assay [18] deals with HepG2. The assay is described as follows: Increase in CYP7A1 gene expression in human HepG2 cells at 1 uM by quantitative real time PCR method. Type of assay: functional, cell-based.
Assay [19] relates to HepG2. The assay is described as follows: Increase in PDK4 gene expression in human HepG2 cells at 1 uM by quantitative real time PCR method. Type of assay: functional, cell-based.
The subject of assay [20] is HepG2. The assay is described as follows: Effect on FAS protein expression in human HepG2 cells at 1 to 10 uM by Western blotting method. The class given is functional, cell-based.
The subject of assay [21] is HepG2. As to the kind of experiment: Lipid-lowering effect in human HepG2 cells assessed as reduction in oleic acid-induced triglyceride accumulation at 10 uM after 24 hrs by oil-red O staining based spectrophotometry. The class given is functional, cell-based.
Assay [22] concerns HepG2. As to the kind of experiment: Lipid-lowering effect in human HepG2 cells assessed as reduction in oleic acid-induced total cholesterol accumulation at 10 uM after 24 hrs by oil-red O staining based spectrophotometry. Type of assay: functional, cell-based.

Among the data in ChEMBL document CHEMBL3352787, “Lipid-lowering effects of farnesylquinone and related analogues from the marine-derived Streptomyces nitrosporeus” (Bioorg Med Chem Lett, 2014) are inhibition and Activity values, retold here.

Calls of active or inactive are those of the source. The rule behind the calls is not given here.

Regarding `O=C(O)CCCCc1ccccc1CO`, the inhibition entry in the assay on HepG2 [1] is “inactive”.
On to `O=C(O)CCCC(=O)c1ccccc1CO`, for which the inhibition entry in the assay with HepG2 [1] was “inactive”.
Same read-out and setting: under `O=C(O)/C=C/C=C/c1ccccc1CO` stands “inactive”; under `CC(C)=CCC/C(C)=C/CC/C(C)=C/Cc1cc(O)c(C)cc1O`, “inactive”; under `O=C(O)CCCCC[C@H](O)c1ccccc1CO`, “Active”.
Same read-out and setting: then `COC(=O)CC/C=C/c1ccccc1CO`, with “inactive”.
Take `O=C(O)C[C@H](O)CCc1ccccc1CO`: the inhibition result in the assay on HepG2 [1] was “inactive”.
As to `CC(C)=CCC/C(C)=C/CC/C(C)=C/CC1=CC(=O)C(C)=CC1=O`, in [2], the Activity result is “Dose-dependent effect”. Besides, the inhibition result with HepG2 [3], in the assay with HepG2 [12] and in the assay on HepG2 [16] was “Dose-dependent effect” each time. For the same compound, the inhibition entry in the assay with HepG2 [4], with HepG2 [8], with HepG2 [9], with HepG2 [10] and in the assay on HepG2 [13] was “inactive” in each case. Moreover, the outcome with HepG2 [5], in the assay on HepG2 [6], in the assay with HepG2 [7], in the assay on HepG2 [11], with HepG2 [14] and in the assay on HepG2 [15] was Active. Moreover, the result in the assay on HepG2 [17], with HepG2 [18] and in the assay on HepG2 [19] was Active. Also, the inhibition result with HepG2 [1] is “Active”. In the assay on HepG2 [20], the outcome was inactive.
`O=C(O)CC/C=C/c1ccccc1CO`: in the assay on HepG2 [1], the inhibition entry is “inactive”.
Turning to `CC[C@H](C)C(=O)O[C@H]1C[C@@H](C)C=C2C=C[C@H](C)[C@H](CC[C@@H]3C[C@@H](O)CC(=O)O3)[C@H]21`, the inhibition result in the assay on HepG2 [1], in the assay with HepG2 [21] and in the assay on HepG2 [22] was “Active” throughout.
As to `CC(C)=CCC/C(C)=C/CC/C(C)=C/C[C@@]12O[C@@H]1[C@H](O)C(C)=CC2=O`, in the assay with HepG2 [1], the inhibition result was “inactive”.
